Read-outs that look alike come from different tables or passages of the source. Each block holds one compound with its values, some of them ahead of it.
How the values were obtained:
MV4;11 cells = experiment: Assay 3 - MV4;11 cell viability using CellTiter-Glo assay; type: cell-based; conditions: Homo sapiens, 48 h incubation
Method: 1.3 Assay 3—MV4;11 Cell Viability Using CellTiter-Glo Assay
The anti-proliferative effects of representative compounds were measured using the CellTiter-Glo assay (Promega). MV4;11 cells were seeded into sterile, white, clear-bottomed 384-well cell-culture microplates (Greiner Bio-one), at 2× concentration in IMDM media and a volume of 25 μL. Test compounds were serially diluted (11-pt dose-response from 1 μM) in IMDM media to 2× concentration, then added to cells to make a final volume of 50 μL. Final DMSO concentration was 0.05%. After 48 h incubation, 25 μL of CellTiter-Glo reagent was added to each well. Following a 15 minutes incubation the luminescence signal was read on a CLARIOStar Plus. Data was processed and dose-response curves were generated using Prism 8 (Graphpad).
The impact on cell viability of MV4;11 cells was evaluated according to the procedure outlined in assay 3 for compounds A1, A2, A8 and A9.

HiBit-BRD4 = target: T1, HiBit-BRD4 (Homo sapiens, UniProt O60885); experiment: Assay 1 - Degradation of HiBit-BRD4 in HEK293; type: cell-based; conditions: HiBit-BRD4 HEK293, 6 h treatment
T1 construct: HEK293 containing a HiBit insertion for BRD4; endogenous in cells; host or cells: HEK293 with HiBit insertion at BRD4
Method: 1.1 Assay 1—Degradation of HiBit-BRD4 in HEK293
HEK293 containing a HiBit insertion for BRD4 were plated in 384-well tissue culture plates at a density of 8×10^4 per well in a volume of 36 μL and incubated overnight at 37° C. and 5% CO2. Wells were treated with test compounds for 6 h prior to addition of the NanoLuc substrate and reading on a […]. Degradation data was plotted and analysed using […] (Graphpad).
The degradation of target protein BRD4 was detected according to the procedure outlined in assay 1 for the following compounds.

tumor cell lines [1] = conditions: up to 94 tumor cell lines, from Ottis et al, identical assay conditions, cited from earlier work; for # tumor cell lines Low sensitivity/Resistant: degrader GI50 < inhibitor; for # tumor cell lines Highly sensitive: degrader GI50 >3 fold more potent than inhibitor
mutant KRas (G12C) = target: T2, mutant KRas (G12C) (Homo sapiens, UniProt P01116, G12C); experiment: Assay 6 - Degradation of KRas-G12C by immunoblot (MIA-PaCa-2 cells); type: cell-based; conditions: after 24 h treatment with 1000 nM
T2 construct: endogenous in cells; host or cells: MIA-PaCa-2
T2 sequence (P01116 1-188 isoform P01116-2 G12C): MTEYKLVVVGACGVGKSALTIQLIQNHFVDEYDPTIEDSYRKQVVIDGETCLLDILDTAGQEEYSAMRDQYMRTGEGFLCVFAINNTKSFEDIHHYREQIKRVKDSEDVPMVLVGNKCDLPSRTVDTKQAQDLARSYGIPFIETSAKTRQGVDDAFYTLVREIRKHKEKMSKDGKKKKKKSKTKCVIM
Method: 1.6 Assay 6—Degradation of KRas-G12C by Immunoblot.
MIA-PaCa-2 cells were seeded in 6- or 12-well plates overnight prior to 24 h treatment with test compounds at the desired concentration (DMSO final concentration 0.1%). After 24 h incubation, cells were washed with PBS and lysed with RIPA buffer (Sigma) supplemented with 1 mM MgCl2, 1 U/mL Benzonase (Sigma), and 1× cOmplete Mini EDTA-free Protease Inhibitor Cocktail (Roche). Lysates were clarified by centrifugation (15,000×g, 20 min, 4° C.) and the total protein content of the supernatant was quantified using a BCA assay. Samples were prepared using equal amounts of total protein and LDS sample buffer (Invitrogen). […] Blots were visualised using a Bio-Rad ChemiDoc MP Imaging System, and band quantification was performed using Image Studio software (LiCor). […] Degradation data was plotted and analysed using Prism (Graphpad, version 8).
The degradation of target protein mutant KRas (G12C) was detected according to the procedure outlined in […] for the compound A64.

[2] = In vivo systemic drug exposure after oral and intravenous dosing; conditions: female, mouse, plasma, C57BL/6 mice
Method: Test compound was administered to C57BL/6 mice, (6-8 weeks, 18-20 g, female, N=6, purchased from JH Laboratory Animal Co. with free access to food and water) at the indicated dose level via oral gavage (p.o., 10 mL/kg, 5% DMSO+95%(15% HP-β-CD in Water) vehicle, oral dosing leg) or tail vein (i.v., 5 mL/kg, 5% DMSO+95%(15% HP-β-CD in Water) vehicle, intravenous leg). The animal was restrained manually at designated time points up to 24 h, approximately 110 μL of blood sample was collected via facial vein into K2EDTA tubes. Blood sample was put on ice and centrifuged at 2000 g for 5 min to obtain plasma sample within 15 minutes which was analysed on an LC-MS/MS-19 (Triple Quad 5500) in positive ion ESI mode following sample prep and HPLC elution:
Mobile Phase: • Mobile Phase A: H2O—0.025% FA—1 mM NH4OAC • Mobile Phase B: MeOH—0.025% FA—1 mM NH4OAc
• Column: ACQUITY UPLC BEH C18 2.1*50 mm 1.7 um • Flow rate: 0.60 mL/min • Column temperature: 60° C.

tumor cell lines [3] = experiment: Cancer cell panel screening, GI50 by Sulforhodamine B method; type: cell-based; conditions: up to 94 tumor cell lines, 72 h
Method: Cancer cell panel screening was provided as a service from OncoLead GmbH & Co. KG. After a lag phase of 48 h, each cell line was treated with six different concentrations (10^−10, 10^−9, 10^−8, 10^−7, 10^−6, 10^−5 M) of either A2 or I-BET726 for 72 h. Concentrations to give half-maximal growth inhibition (GI50) were determined using the Sulforhodamine B method. Log(GI50) values were plotted as single points (I-BET726, cross; A2, dot) superimposed on the bar graph and plotted along the right y axis. Log ratio of the GI50 determined for I-BET726 versus the GI50 determined for A2 were plotted for each cell line tested (bars, left y axis).
Where no specific GI50 value could be determined, a GI50 of at least 10^−5 M was assumed to calculate the inhibitor vs degrader ratio.
Similar studies have previously been carried out on CRBN PROTAC (dBET6) and VHL PROTAC (MZ1) (see, for example, Ottis et al, ACS Chem. Biol. 2019, 14, 2215-2223 under identical assay conditions).
Low sensitivity/resistant defined as degrader GI50<inhibitor.

[4] = In vivo drug exposure in the brain after systemic dosing; conditions: C57BL/6 mice, intravenous 5 mg/kg dose
Method: Blood collection: The animal was restrained manually at designated time points up to 24 h, approximately 110 μL of blood sample was collected via facial vein into K2EDTA tubes. Blood sample was put on ice and centrifuged at 2000 g for 5 min (4° C.) to obtain plasma sample within 15 minutes. Brain collection: The animal was euthanized under CO2. A mid-line incision was made in the animal's scalp and skin retracted. The skull overlying the brain was removed. The whole brain was collected, rinsed with cold saline, dried on filtrate paper, weighted, snap frozen by placing into dry-ice. The sample was homogenized with 3 volumes (v/w) of PBS prior to analysis. Samples were analysed on an LC-MS/MS-19 (Triple Quad 5500) in positive ion ESI mode following sample prep and HPLC elution: Mobile Phase: • Mobile Phase A: H2O—0.025% FA—1 mM NH4OAC • Mobile Phase B: MeOH—0.025% FA—1 mM NH4OAc • Column: waters BEH C18 (2.1×50 mm, 1.7 μm) • Flow rate: 0.60 mL/min • Column temperature: 60° C.

IC50 (MV4;11 cells): 48 nM
Compound: CCCC(NC(=O)/C(C#N)=C/c1nccs1)c1ccc(OCC(=O)NCCOCCOCCOCCOCCOCCNC(=O)c2ccc(-c3ccc4c(c3)[C@H](Nc3ccc(Cl)cc3)C[C@H](C)N4C(C)=O)cc2)cc1 (stereo partly drawn) [Example A1, 4-((2S,4R)-1-acetyl-4-((4-chlorophenyl)amino)-2-methyl-1,2,3,4-tetrahydroquinolin-6-yl)-N-(1-(4-(1-((E)-2-cyano-3-(thiazol-2-yl)acrylamido)butyl)phenoxy)-2-oxo-6,9,12,15,18-pentaoxa-3-azaicosan-20-yl)benzamide]

DC50 (HiBit-BRD4): < 10000 nM
Compound: CCCC(c1ccc(OCC(=O)NCCOCCOCCOCCOCCOCCNC(=O)c2ccc(-c3ccc4c(c3)[C@H](Nc3ccc(Cl)cc3)C[C@H](C)N4C(C)=O)cc2)cc1)N(C)C(=O)/C=C/c1nccs1 (stereo partly shown) [Example A6]

Compound: Cc1ncsc1-c1ccc(CNC(=O)[C@@H]2C[C@@H](O)CN2C(=O)[C@@H](NC(=O)COCCOCCOCCNC(=O)C[C@@H]2N=C(c3ccc(Cl)cc3)c3c(sc(C)c3C)-n3c(C)nnc32)C(C)(C)C)cc1 [VHL PROTAC (MZ1), MZ1]
# tumor cell lines GI50, <1 μM (tumor cell lines [1]): 83%
# tumor cell lines Low sensitivity/Resistant (tumor cell lines [1]): 26%
# tumor cell lines Highly sensitive (tumor cell lines [1]): 47%

residual KRas (G12C) abundance (mutant KRas (G12C)): less than 50%
Compound: C=CC(=O)N1CCN(c2nc(OC[C@@H]3CCCN3CCCCNC(=O)CCc3ccc(C(CCC)N(C)C(=O)/C(C#N)=C/c4nccs4)cc3)nc3c2CCN(c2cccc4cccc(Cl)c24)C3)C[C@@H]1CC#N (stereo partly drawn) [Example A64, (E)-N-[1-[4-[3-[4-[(2S)-2-[[7-(8-chloro-1-naphthyl)-4-[(3S)-3-(cyanomethyl)-4-prop-2-enoyl-piperazin-1-yl]-6,8-dihydro-5H-pyrido[3,4-d]pyrimidin-2-yl]oxymethyl]pyrrolidin-1-yl]butylamino]-3-oxo-propyl]phenyl]butyl]-2-cyano-N-methyl-3-thiazol-2-yl-prop-2-enamide]

bioavailability ([2]; 10 mg/kg oral vs 1 mg/kg intravenous): 7.2%
AUC(0-inf) ([2]; intravenous 1 mg/kg dose): 841 ng·h/mL
AUC(0-inf) ([2]; oral 10 mg/kg dose): 605 ng·h/mL
Compound: CCCC1c2ccc(OCCN3CCC(C(=O)Nc4ncc(SCc5ncc(C(C)(C)C)o5)s4)CC3)cc2CCN1C(=O)/C(C#N)=C/c1cccc(Br)n1 (stereo not shown) [Example A37]

IC50 (MV4;11 cells): 2 nM
# tumor cell lines GI50, <1 μM (tumor cell lines [3]): 100%
Compound: CCCC(c1ccc(OCC(=O)NCCOCCOCCOCCOCCOCCNC(=O)c2ccc(-c3ccc4c(c3)[C@H](Nc3ccc(Cl)cc3)C[C@H](C)N4C(C)=O)cc2)cc1)N(C)C(=O)/C(C#N)=C/c1nccs1 (stereo partly drawn) [Example A2, 4-((2S,4R)-1-acetyl-4-((4-chlorophenyl)amino)-2-methyl-1,2,3,4-tetrahydroquinolin-6-yl)-N-(1-(4-(1-((E)-2-cyano-N-methyl-3-(thiazol-2-yl)acrylamido)butyl)phenoxy)-2-oxo-6,9,12,15,18-pentaoxa-3-azaicosan-20-yl)benzamide]
# tumor cell lines Highly sensitive (tumor cell lines [3]; highly sensitive = degrader GI50 >3 fold more potent than inhibitor): 66%
# tumor cell lines Low sensitivity/Resistant (tumor cell lines [3]; low sensitivity/resistant = degrader GI50 < inhibitor): 15%

brain AUC(0-INF) [4]: 845 ng·h/mL
Kp ([4]; female, mouse, brain and plasma, ratio of AUC(0-INF)): 0.6
AUC(0-inf) ([4]; female, mouse, plasma): 1340 ng·h/mL
Compound: CCCC(c1ccc(CCCN2CCC(CNc3ncc(SCc4ncc(C(C)(C)C)o4)s3)CC2)cc1)N(C)C(=O)/C(C#N)=C/c1nc2ccccc2s1 (stereo not shown) [Example A39, 3-(benzo[d]thiazol-2-yl)-N-(1-(4-(3-(4-(((5-(((5-(tert-butyl)oxazol-2-yl)methyl)thio)thiazol-2-yl)amino)methyl)piperidin-1-yl)propyl)phenyl)butyl)-2-cyano-N-methylacrylamide]

Compound: Cc1sc2c(c1C)C(c1ccc(Cl)cc1)=N[C@@H](CC(=O)NCCCCCCCCNC(=O)COc1cccc3c1C(=O)N(C1CCC(=O)NC1=O)C3=O)c1nnc(C)n1-2 (stereo partly shown) [CRBN PROTAC (dBET6), dBET6]
# tumor cell lines GI50, <1 μM (tumor cell lines [1]): 58%
# tumor cell lines Low sensitivity/Resistant (tumor cell lines [1]): 52%
# tumor cell lines Highly sensitive (tumor cell lines [1]): 29%

Reference: patent publication US20240115711A1, “Novel Bifunctional Molecules For Targeted Protein Degradation” (Amphista Therapeutics Limited, priority 2020, published 2024)
